# Data taken from patent US10941121B2 (AZIENDA OSPEDALIERA UNIVERSITARIA SENESE, priority 2015, dated 2021).
# Like-named read-outs stand apart in the source and are kept apart here.
# Assays:
# [1] = Cytotoxicity, MTT method in LUNET cells; type: cell-based; conditions: human; MMT method in LUNET cells; read-out: CC50 (μM) non-infected cells
# Method: Toxicity (CC50) was analysed in the Lunet/HuH7 cells by the addition of 10 μL of MTT (3-(4,5-dimethylthiazol-2-yl)-2,5-diphenyltetrazolium bromide) per well. After 4 h of incubation at 37° C. in a humidified atmosphere with 5% CO2, the amount of formazan produced was quantified spectrophotometrically at 550/620 nm (C. Pannecouque et al, Nature protocol 2008; 3 (3): 427-434). […] These assays were done in duplicate.
# DDX3 Helicase [2] = target: T1, DDX3 Helicase (Homo sapiens, UniProt O00571); experiment: biochemical
# T1 sequence (O00571 whole entry): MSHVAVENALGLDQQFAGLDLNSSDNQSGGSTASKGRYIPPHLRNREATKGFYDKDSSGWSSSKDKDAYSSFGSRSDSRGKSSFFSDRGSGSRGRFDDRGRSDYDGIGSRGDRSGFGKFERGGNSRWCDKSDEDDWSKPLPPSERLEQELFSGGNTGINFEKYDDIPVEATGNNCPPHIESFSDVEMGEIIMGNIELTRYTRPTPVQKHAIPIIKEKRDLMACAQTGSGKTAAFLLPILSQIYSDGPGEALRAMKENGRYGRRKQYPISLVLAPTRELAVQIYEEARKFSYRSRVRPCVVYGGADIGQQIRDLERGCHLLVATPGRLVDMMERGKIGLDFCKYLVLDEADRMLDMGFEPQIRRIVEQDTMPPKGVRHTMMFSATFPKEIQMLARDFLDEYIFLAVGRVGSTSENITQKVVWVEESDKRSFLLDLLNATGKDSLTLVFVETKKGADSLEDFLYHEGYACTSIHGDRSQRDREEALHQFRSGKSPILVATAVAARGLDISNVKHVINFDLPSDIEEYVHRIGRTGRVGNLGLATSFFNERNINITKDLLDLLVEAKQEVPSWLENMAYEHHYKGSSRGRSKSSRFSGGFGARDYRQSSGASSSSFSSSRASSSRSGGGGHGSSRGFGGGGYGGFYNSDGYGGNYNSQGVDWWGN
# [3] = test system: Hepatitis C Virus (HCV) replicon system; experiment: HCV replicon system, luciferase method in LucUbiNeo-ET cells; conditions: for EC50: Hepatitis C virus, 48 h, read-out: EC50 (μM) HCV replicon system
# DDX3 Helicase [4] = target: T1, DDX3 Helicase; conditions: for IC50: read-out: ID50 (μM) against DDX3 Helicase, n.a. = compound not active; for DDX3 helicase activity compared with EI01D: in words
# [5] = Parallel Artificial Membrane Permeability Assay (PAMPA); type: in vitro ADME; conditions: for Papp at 5 h, 0.5 mM: PAMPA, phosphatidylcholine in dodecane, pH 7.4, 5 h, room temperature, read-out: PAMPA Papp *10^−6 (cm/s) GI; for PAMPA membrane retention (RM %): value in brackets in the PAMPA cell
# Method: Parallel Artificial Membrane Permeability Assay (PAMPA). Donor solution (0.5 mM) was prepared by diluting 1 mM dimethylsulfoxide (DMSO) compound stock solution using phosphate buffer (pH 7.4, 0.025 M). Filters were coated with 5 μL of a 1% (w/v) dodecane solution of phosphatidylcholine prepared from CHCl3 solution 10% w/v, for intestinal permeability. Donor solution (150 μL) was added to each well of the filter plate. To each well of the acceptor plate were added […] (50% DMSO in phosphate buffer). All compounds were tested in three different plates on different days. The sandwich was incubated for 5 h at room temperature under gentle shaking. After the incubation time, the plates were separated, and samples were taken from both receiver and donor sides and analyzed using LC with UV detection at 280 nm.
# LC analysis were performed with a Varian Prostar HPLC system (Varian Analytical Instruments, USA) equipped with a binary pump with a manual injection valve and model Prostar 325 UV-VIS Detector.
# Permeability (Papp) for PAMPA was calculated according to the following equation, obtained from Wohnsland and Faller and Sugano et al. equation with some modification in order to obtain permeability values in cm s^−1,
# where VA is the volume in the acceptor well, VD is the volume in the donor well (cm^3), A is the “effective area” of the membrane (cm^2), t is the incubation time (s) and r the ratio between drug concentration in the acceptor and equilibrium concentration of the drug in the total volume (VD+VA). Drug concentration is estimated by using the peak area integration.
# Membrane retentions (%) were calculated according to the following equation: […]
# where r is the ratio between drug concentration in the acceptor and equilibrium concentration, D, A, and Eq represented drug concentration in the donor, acceptor and equilibrium solution, respectively.
# Water Solubility Assay = type: physicochemical; conditions: thermodynamic from solid
# Method: Water Solubility Assay. Each solid compound (1 mg) was added to 1 mL of water. The samples were shaked in a shaker bath at room temperature for 24-36 h. The suspensions were filtered through a 0.45 μm nylon filter (Acrodisc), and the solubilized compound determined by LC-MS-MS assay. For each compound the determination was performed in triplicate.
# For the quantification was used an LC-MS system consisted of a Varian apparatus (Varian Inc) including a vacuum solvent degassing unit, two pumps (212-LC), a Triple Quadrupole MSD (Mod. 320-LC) mass spectrometer with ES interface and Varian MS Workstation System Control Vers. 6.9 software. […] The flow rate was 0.2 mL min^−1 and injection volume was 5 μL. The instrument operated in positive mode and parameters were: detector 1850 V, drying gas pressure 25.0 psi, desolvation temperature 300.0° C., nebulizing gas 40.0 psi, needle 5000 V and shield 600 V. Nitrogen was used as nebulizer gas and drying gas. Collision induced dissociation was performed using Argon as the collision gas at a pressure of 1.8 mTorr in the collision cell.
# [6] = experimental aqueous solubility, read-out: LogS (converted)
# [7] = room temperature, 24-36 h, read-out: Aq. Solub.
compound,measurement,setting,value
"Cc1ccccc1NC(=O)Nc1ccc(-n2cc(C(C)(C)C)nn2)cc1 [Compound 8b, 1-(4-(4-tert-butyl-1H-1,2,3-triazol-1-yl)phenyl)-3-o-tolylurea]",CC50,[1],100 µM
same,IC50,DDX3 Helicase [2],3.36 µM
same,EC50,[3],5.73 µM
"Cc1ccccc1NC(=O)Nc1ccc(-n2cc(CN(C)Cc3ccccc3)nn2)cc1 [Compound 8c, 1-(4-(4-methanamine,N-[(phenyl)methyl]-N-methyl-1H-1,2,3-triazol-1yl)phenyl)-3-o-tolylurea]",IC50,DDX3 Helicase [2],22.8 µM
"Cc1cn(-c2ccc(NC(=O)Nc3ccccc3C)cc2)nn1 [Compound 8f, 1-(4-(4-methyl-1H-1,2,3-triazol-1-yl)phenyl)-3-o-tolylurea]",CC50,[1],36 µM
same,EC50,[3],> 36 µM
"CCc1cn(-c2ccc(NC(=O)Nc3ccccc3C)cc2)nn1 [Compound 8g, 1-(4-(4-ethyl-1H-1,2,3-triazol-1-yl)phenyl)-3-o-tolylurea]",CC50,[1],295 µM
same,IC50,DDX3 Helicase [2],0.98 µM
same,EC50,[3],36 µM
"CCCCc1cn(-c2ccc(NC(=O)Nc3cnccc3C)cc2)nn1 [Compound 15a, 1-(4-(4-butyl-1H-1,2,3-triazol-1-yl)phenyl)-3-(4-methylpyridin-3-yl)urea]",IC50,DDX3 Helicase [2],1.47 µM
"Cc1ccncc1NC(=O)Nc1ccc(-n2cc(CCC(C)C)nn2)cc1 [Compound 15b, 1-(4-(4-isopentyl-1H-1,2,3-triazol-1-yl)phenyl)-3-(4-methylpyridin-3-yl)urea]",CC50,[1],180 µM
same,IC50,DDX3 Helicase [2],2 µM
same,EC50,[3],3.65 µM
Cc1ccccc1NC(=O)Nc1ccc(-n2cc(C(F)(F)C(F)(F)C(F)(F)C(F)(F)F)nn2)cc1 [Compound 20c],CC50,[1],> 125 µM
same,IC50,DDX3 Helicase [4],6 µM
same,EC50,[3],> 125 µM
"COCCc1cn(-c2ccc(NC(=O)Nc3ccccc3C)cc2)nn1 [Compound 20f, 1-(4-(4-(2-methoxyethyl)-1H-1,2,3-triazol-1-yl)phenyl)-3-o-tolylurea]",CC50,[1],44.4 µM
same,"Papp at 5 h, 0.5 mM",[5],0.69 ×10⁻⁶ cm/s
same,PAMPA membrane retention (RM %),[5],7.4%
same,solubility,Water Solubility Assay; [6],50.1 µM
same,solubility,Water Solubility Assay; [7],26300 ng/mL
same,IC50,DDX3 Helicase [4],1 µM
same,EC50,[3],28.8 µM
"Cc1c(Cl)cccc1NC(=O)Nc1ccc(-n2cc(CCC(C)C)nn2)cc1 [Compound 21b, 1-(3-chloro-2-methylphenyl)-3-(4-(4-isopentyl-1H-1,2,3-triazol-1-yl)phenyl)urea]",CC50,[1],42.1 µM
same,"Papp at 5 h, 0.5 mM",[5],2.51 ×10⁻⁶ cm/s
same,PAMPA membrane retention (RM %),[5],59.1%
same,solubility,Water Solubility Assay; [6],< 0.00251 µM
same,solubility,Water Solubility Assay; [7],< 1 ng/mL
same,EC50,[3],6.11 µM
"CC(C)CCc1cn(-c2ccc(NC(=O)Nc3ccccc3C(F)(F)F)cc2)nn1 [Compound 22b, 1-(4-(4-isopentyl-1H-1,2,3-triazol-1-yl)phenyl)-3-(2-(trifluoromethyl)phenyl)urea]",CC50,[1],46.8 µM
same,"Papp at 5 h, 0.5 mM",[5],7.41 ×10⁻⁶ cm/s
same,PAMPA membrane retention (RM %),[5],24.8%
same,solubility,Water Solubility Assay; [6],< 0.00251 µM
same,solubility,Water Solubility Assay; [7],2 ng/mL
same,DDX3 helicase activity compared with EI01D,DDX3 Helicase [4],approximately ten-fold more active
same,IC50,DDX3 Helicase [2],0.17 µM
same,"activity against HCV, in words",[3],best activity
same,EC50,[3],0.67 µM
"Cc1ccccc1NC(=O)Nc1ccc(-n2cc(CO)nn2)cc1 [Compound 35a, 1-(4-(4-(hydroxymethyl)-1H-1,2,3-triazol-1-yl)phenyl)-3-o-tolylurea]",IC50,DDX3 Helicase [2],17.5 µM
"Cc1ccccc1NC(=O)Nc1ccc(-n2cc(CCO)nn2)cc1 [Compound 35b, 1-(4-(4-(hydroxyethyl)-1H-1,2,3-triazol-1-yl)phenyl)-3-o-tolylurea]",CC50,[1],> 370 µM
same,IC50,DDX3 Helicase [2],20 µM
same,EC50,[3],28.9 µM
"Cc1ccccc1NC(=O)Nc1ccc(-n2cc(CN3CCOCC3)nn2)cc1 [Compound 35e, 1-(4-(4-(morpholinomethyl)-1H-1,2,3-triazol-1-yl)phenyl)-3-o-tolylurea]",CC50,[1],> 125 µM
same,EC50,[3],> 125 µM
"Cc1ccccc1NC(=O)Nc1ccc(-n2cc(CCN3CCOCC3)nn2)cc1 [Compound 35f, 1-(4-(4-(morpholinoethyl)-1H-1,2,3-triazol-1-yl)phenyl)-3-o-tolylurea]",CC50,[1],> 125 µM
same,EC50,[3],> 125 µM
"Cc1ccccc1NC(=O)Nc1ccc(-n2cc(CCCN(C)C)nn2)cc1 [Compound 35i, 1-(4-(4-(dimethylaminopropyl)-1H-1,2,3-triazol-1-yl)phenyl)-3-o-tolylurea]",IC50,DDX3 Helicase [4],2.9 µM
"Cc1ccccc1NC(=O)Nc1ccc(-n2cc(CCOC(=O)CC(C)C)nn2)cc1 [Compound 37, 2-(1-(4-(3-(o-tolyl)ureido)phenyl)-1H-1,2,3-triazol-4-yl)ethyl 3-methylbutanoate]",CC50,[1],180 µM
same,IC50,DDX3 Helicase [4],1.3 µM
same,EC50,[3],11.7 µM
"CC(C)CC(=O)OCCc1cn(-c2ccc(NC(=O)Nc3ccccc3C(F)(F)F)cc2)nn1 [Compound 38, 2-(1-(4-(3-(2-(trifluoromethyl)phenyl)ureido)phenyl)-1H-1,2,3-triazol-4-yl)ethyl 3-methylbutanoate]",CC50,[1],23.2 µM
same,IC50,DDX3 Helicase [4],0.4 µM
same,EC50,[3],0.5 µM
"O=C(Nc1ccc(-n2cc(CCOC(=O)/C=C/c3ccc4c(c3)OCO4)nn2)cc1)Nc1ccccc1C(F)(F)F [Compound 39, 2-(1-(4-(3-(2-(trifluoromethyl)phenyl)ureido)phenyl)-1H-1,2,3-triazol-4-yl)ethyl 3-(benzo[d][1,3]dioxol-5-yl)acrylate]",CC50,[1],28.6 µM
same,IC50,DDX3 Helicase [4],5.1 µM
same,EC50,[3],4.3 µM
"CCCC(C)C(F)c1cn(-c2ccc(NC(=O)Nc3ccccc3C(F)(F)F)cc2)nn1 (centres unmarked) [Compound 42c, 1-(4-(4-(1-fluoro-2-methylpentyl)-1H-1,2,3-triazol-1-yl)phenyl)-3-(2-(trifluoromethyl)phenyl) urea]",IC50,DDX3 Helicase [2],0.3 µM
"CCOCn1nnc(-c2ccc(NC(=O)Nc3ccccc3C)cc2)n1 [Compound 50, 1-(4-(2-(ethoxymethyl)-2H-tetrazol-5-yl)phenyl)-3-(o-tolyl)urea]",CC50,[1],245 µM
same,IC50,DDX3 Helicase [2],14 µM
same,EC50,[3],22.8 µM
"CCCCn1nnc(-c2ccc(NC(=O)Nc3cnccc3C)cc2)n1 [Compound 52, 1-(4-(2-butyl-2H-tetrazol-5-yl)phenyl)-3-(4-methylpyridin-3-yl)urea]",IC50,DDX3 Helicase [2],2.49 µM
"CC(C)CCc1cn(-c2ccc(NC(=O)Nc3ccccc3F)cc2)nn1 [Compound 55a, 1-(2-fluorophenyl)-3-(4-(4-isopentyl-1H-1,2,3-triazol-1-yl)phenyl)urea]",CC50,[1],> 340 µM
same,DDX3 helicase activity compared with EI01D,DDX3 Helicase [4],approximately ten-fold more active
same,IC50,DDX3 Helicase [4],0.12 µM
same,"activity against HCV, in words",[3],best activity
same,EC50,[3],0.4 µM
"Cc1nc(Cl)c2ccccc2c1NC(=O)Nc1ccc(-n2cc(CCC(C)C)nn2)cc1 [Compound 55g, 1-(1-chloro-3-methylisoquinolin-4-yl)-3-(4-(4-isopentyl-1H-1,2,3-triazol-1-yl)phenyl)urea]",CC50,[1],> 278 µM
same,IC50,DDX3 Helicase [2],10 µM
same,EC50,[3],12.4 µM
"CCCCc1cn(-c2cccc(S(=O)(=O)Nc3ccc(OC)cc3)c2)nn1 [Compound 64b, 3-(4-butyl-1H-1,2,3-triazol-1-yl)-N-(4-methoxyphenyl)benzenesulfonamide]",IC50,DDX3 Helicase [2],52.2 µM
"CCCCc1cn(-c2ccc(S(=O)(=O)Nc3ccccc3O)cc2)nn1 [Compound 65a, 4-(4-butyl-1H-1,2,3-triazol-1-yl)-N-(2-hydroxyphenyl)benzenesulfonamide]",IC50,DDX3 Helicase [2],15.5 µM
